Laboratory results published in publication PMC4667193 (Scientific Reports, 2015).

How the values were obtained:
Assay in all cases: [^3H]NMS radioligand competition binding, CHO cell membranes
Rat M1 mAChR = biological target: T1, Rat M1 mAChR (Rattus norvegicus, UniProt P08482); conditions: rat M1, 0.1 nM [^3H]NMS
T1 construct: host or cells: CHO (CHO-K1) cells
T1 sequence (P08482 1-460): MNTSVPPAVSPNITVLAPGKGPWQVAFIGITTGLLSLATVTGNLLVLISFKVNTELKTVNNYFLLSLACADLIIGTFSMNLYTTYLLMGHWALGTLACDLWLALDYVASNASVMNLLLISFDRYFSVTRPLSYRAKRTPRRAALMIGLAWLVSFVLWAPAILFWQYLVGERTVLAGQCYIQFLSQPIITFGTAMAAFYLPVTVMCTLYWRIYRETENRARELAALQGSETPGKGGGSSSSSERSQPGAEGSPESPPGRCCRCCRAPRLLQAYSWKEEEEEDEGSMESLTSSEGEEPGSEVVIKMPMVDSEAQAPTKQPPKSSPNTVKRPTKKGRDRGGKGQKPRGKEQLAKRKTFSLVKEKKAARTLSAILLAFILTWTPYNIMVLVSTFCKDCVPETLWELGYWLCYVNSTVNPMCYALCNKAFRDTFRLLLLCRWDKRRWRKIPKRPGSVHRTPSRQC
Procedure: (§1) Membranes were prepared from CHO cells stably expressing individual rat mAChRs (rM1 to rM5). Briefly, media was removed, cells were washed with PBS and harvested with PBS into a centrifuge bottle. Cells were spun at 2,000 g for 5 minutes at 4 °C. After harvesting, the supernatant was gently discarded and cold membrane preparation buffer [Hanks’ balanced salt solution (HBSS; Invitrogen), 4.17 mM sodium bicarbonate, 20 mM HEPES and 0.5 mM EDTA] was added (10 mL/dish). Cells were then homogenized for 5–10 seconds with a rotary homogenizer (Polytron®) and centrifuged at 20,000g for 20 minutes at 4 °C. The homogenization/centrifugation cycle was repeated twice. After the last centrifugation, the supernatant was gently discarded and the pellet was resuspended in cold membrane preparation buffer (up to 2 mL). All binding reactions were performed in a total volume of 1 mL containing 25 μg of membrane protein. […] The equilibrium binding was terminated by rapid filtration using a 96-well harvester (Brandel®). Filters were washed three times with ice-cold harvesting buffer and were dried overnight. Radioactivity was counted using a TopCount NXT (PerkinElmer®) and counts were normalized to the maximal specific binding in the presence of vehicle. Saturation and competition binding data were analyzed using a weighted nonlinear least-squares interactive curve-fitting program GraphPad Prism (GraphPad Prism Software version 5.0). A mathematical model for one or two binding sites was applied. The equilibrium dissociation constant (KD) and the binding capacity (Bmax) were determined. The inhibition constant (Ki) was determined from competition curves using the Cheng and Prusoff equation[52].

Rat M3 mAChR = biological target: T2, Rat M3 mAChR (Rattus norvegicus, UniProt P08483); conditions: rat M3, 0.1 nM [^3H]NMS
T2 construct: host or cells: CHO (CHO-K1) cells
Procedure: as §1

Rat M4 mAChR = biological target: T3, Rat M4 mAChR (Rattus norvegicus, UniProt P08485); conditions: rat M4, 0.1 nM [^3H]NMS
T3 construct: host or cells: CHO (CHO-K1) cells
T3 sequence (P08485 1-478): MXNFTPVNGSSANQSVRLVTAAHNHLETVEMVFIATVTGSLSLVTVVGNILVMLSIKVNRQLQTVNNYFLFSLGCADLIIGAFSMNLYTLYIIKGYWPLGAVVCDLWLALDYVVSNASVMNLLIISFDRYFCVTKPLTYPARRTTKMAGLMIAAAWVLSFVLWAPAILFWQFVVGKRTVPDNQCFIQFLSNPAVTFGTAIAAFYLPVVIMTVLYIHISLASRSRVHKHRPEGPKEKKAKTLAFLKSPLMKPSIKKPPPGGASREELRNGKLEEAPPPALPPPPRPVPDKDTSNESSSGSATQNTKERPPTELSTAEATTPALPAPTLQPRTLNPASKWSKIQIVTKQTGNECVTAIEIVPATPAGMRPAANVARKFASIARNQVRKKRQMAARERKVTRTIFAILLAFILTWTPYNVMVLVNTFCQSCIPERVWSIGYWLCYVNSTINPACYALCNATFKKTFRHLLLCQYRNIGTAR
Procedure: as §1

Rat M5 mAChR = biological target: T4, Rat M5 mAChR (Rattus norvegicus, UniProt P08911); conditions: rat M5, 0.1 nM [^3H]NMS
T4 construct: host or cells: CHO (CHO-K1) cells
T4 sequence (P08911 1-531): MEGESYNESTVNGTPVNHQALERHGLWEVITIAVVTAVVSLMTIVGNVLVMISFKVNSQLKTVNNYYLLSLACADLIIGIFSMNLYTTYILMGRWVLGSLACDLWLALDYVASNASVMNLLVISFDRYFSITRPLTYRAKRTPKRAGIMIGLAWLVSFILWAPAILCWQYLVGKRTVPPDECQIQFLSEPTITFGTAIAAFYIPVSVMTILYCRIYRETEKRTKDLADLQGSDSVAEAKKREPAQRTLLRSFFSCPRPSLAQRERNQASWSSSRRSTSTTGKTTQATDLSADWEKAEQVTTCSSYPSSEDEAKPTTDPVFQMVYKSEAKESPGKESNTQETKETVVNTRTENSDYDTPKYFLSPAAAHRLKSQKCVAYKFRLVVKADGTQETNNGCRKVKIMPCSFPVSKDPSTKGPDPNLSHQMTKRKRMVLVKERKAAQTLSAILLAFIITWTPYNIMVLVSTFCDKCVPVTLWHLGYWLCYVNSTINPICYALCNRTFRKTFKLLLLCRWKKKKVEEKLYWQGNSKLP
Procedure: as §1

Rat M2 mAChR = biological target: T5, Rat M2 mAChR (Rattus norvegicus, UniProt P10980); conditions: rat M2, 0.1 nM [^3H]NMS
T5 construct: host or cells: CHO (CHO-K1) cells
T5 sequence (P10980 1-466): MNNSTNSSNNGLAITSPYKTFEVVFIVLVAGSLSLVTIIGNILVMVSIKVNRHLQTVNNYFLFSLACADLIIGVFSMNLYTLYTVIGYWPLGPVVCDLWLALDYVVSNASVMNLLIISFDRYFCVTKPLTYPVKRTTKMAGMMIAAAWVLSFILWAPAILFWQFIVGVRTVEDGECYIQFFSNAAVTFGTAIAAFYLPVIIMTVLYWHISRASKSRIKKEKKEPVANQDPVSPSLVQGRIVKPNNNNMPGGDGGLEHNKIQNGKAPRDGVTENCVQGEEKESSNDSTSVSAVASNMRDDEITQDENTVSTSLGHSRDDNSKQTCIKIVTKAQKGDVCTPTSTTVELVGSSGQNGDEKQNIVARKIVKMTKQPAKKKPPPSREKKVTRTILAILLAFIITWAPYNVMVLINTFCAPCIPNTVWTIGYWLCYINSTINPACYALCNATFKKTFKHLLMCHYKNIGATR
Procedure: as §1

T2 sequence (P08483 whole entry): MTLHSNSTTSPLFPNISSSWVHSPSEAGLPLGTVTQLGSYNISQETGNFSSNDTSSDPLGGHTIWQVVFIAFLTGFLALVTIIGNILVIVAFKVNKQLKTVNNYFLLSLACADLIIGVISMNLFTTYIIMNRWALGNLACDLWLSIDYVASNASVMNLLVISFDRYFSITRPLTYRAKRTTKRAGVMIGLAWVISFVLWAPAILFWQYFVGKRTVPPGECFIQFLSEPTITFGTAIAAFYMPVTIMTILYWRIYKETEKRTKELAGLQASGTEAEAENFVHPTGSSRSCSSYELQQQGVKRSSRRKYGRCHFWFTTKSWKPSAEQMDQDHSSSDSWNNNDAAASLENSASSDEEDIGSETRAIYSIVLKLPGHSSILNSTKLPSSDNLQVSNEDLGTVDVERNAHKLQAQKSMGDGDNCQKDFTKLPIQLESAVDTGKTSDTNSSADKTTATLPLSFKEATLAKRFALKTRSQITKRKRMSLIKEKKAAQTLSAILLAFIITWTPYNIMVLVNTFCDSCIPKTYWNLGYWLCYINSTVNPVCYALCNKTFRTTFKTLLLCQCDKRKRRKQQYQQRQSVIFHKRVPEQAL

COC(=O)C1=CC[C@@H]2CC[C@H]1N2C [AEME, anhydroecgonine methyl ester]
Ki (Rat M1 mAChR): 25.7 µM | Ki (Rat M3 mAChR): 33.9 µM | Ki (Rat M4 mAChR): 24.5 µM | Ki (Rat M5 mAChR): 29.5 µM | Ki (Rat M2 mAChR): 19.5 µM
